# Results taken from patent US12439920B2, “Pyridine n-oxide compound and pest control agent” (Nippon Soda Co., Ltd., priority 2019, dated 2025).
# How the values were obtained:
# Assay type in all cases: in vivo
# Plutella xylostella [1] = assay: Test of soil irrigation treatment against Plutella xylostella; conditions: investigated after 3 days; for Control rate % 21 days after: first instar larvae inoculated 21 days after transplant; for Control rate % 28 days after: first instar larvae inoculated 28 days after transplant
# Description: 5 parts of the compound of the present invention, 93.6 parts of dimethylformamide, and 1.4 parts of polyoxyethylene alkyl aryl ether were mixed and dissolved to prepare emulsion (I) containing 5% of the active ingredient. An insecticidal rate was calculated according to the following expression: Insecticidal rate (%)=(The number of dead insects/The number of tested insects)×100 A control rate was calculated according to the following expression: Control rate (%)={1−(Nt)/(Nc)}×100 • Nc: The number of parasites in an untreated plot • Nt: The number of parasites in a spray treated plot The emulsion (I) was diluted with water such that the concentration of the compound of the present invention was 500 ppm or 250 ppm. Then, 500 mL of the dilution was subjected to irrigation treatment per 128-hole cell tray in which cabbage seedlings were planted. The cell seedlings were transplanted to No. 4 pots and maintained in a thermostat chamber having a temperature of 25° C. and a humidity of 65%. Then, 50 first instar larvae of Plutella xylostella were inoculated on the whole of a cabbage after 21 days and 28 days from the transplant, respectively. The life and the death of Plutella xylostella were investigated after 3 days, and a control rate was calculated according to the following expression. The test was conducted in quadruplicate. Control rate (%)={1−(Nt)/(Nc)}×100 • Nc: The number of parasites in an untreated plot • Nt: The number of parasites in a spray treated plot
# Aphis craccivora = assay: Test of efficacy on Aphis craccivora (spray on black-eyed peas); conditions: 125 ppm; sprayed; nymphs on black-eyed peas; after 4 days
# Description: (§1) 5 parts of the compound of the present invention, 93.6 parts of dimethylformamide, and 1.4 parts of polyoxyethylene alkyl aryl ether were mixed and dissolved to prepare emulsion (I) containing 5% of the active ingredient.
# (§2) An insecticidal rate was calculated according to the following expression: Insecticidal rate (%)=(The number of dead insects/The number of tested insects)×100 A control rate was calculated according to the following expression: Control rate (%)={1−(Nt)/(Nc)}×100 • Nc: The number of parasites in an untreated plot • Nt: The number of parasites in a spray treated plot
# Seedlings of black-eyed peas were raised in 10-cm pots. Aphis craccivora nymphs were inoculated onto primary leaves. The emulsion (I) was diluted with water such that the concentration of the compound of the present invention was 125 ppm. The dilution was sprayed to the black-eyed peas parasitized by the Aphis craccivora nymphs. The black-eyed peas were placed in a thermostat chamber having a temperature of 25° C. and a humidity of 60%. Life and death of Aphis craccivora were determined after 4 days from the spraying, and the insecticidal rate was calculated. The test was conducted in duplicate.
# [2] = tested on: Phyllotreta striolata adults; assay: Test of efficacy on Phyllotreta striolata (spray on Qing geng cai seedlings); conditions: 125 ppm, sprayed on Qing geng cai seedlings, after 7 days
# Description: as §1, §2
# The emulsion (I) was diluted with water such that the concentration of the compound of the present invention was 125 ppm to prepare a test chemical. The dilution was sprayed to Qing geng cai seedlings (at the seventh true leaf stage) planted in 10-cm pots. The Qing geng cai seedlings were dried in air and then placed in a plastic cup. Ten Phyllotreta striolata adults were released thereto. The plastic cup was stored in a thermostat chamber having a temperature of 25° C. and a humidity of 65%. Life and death were determined after 7 days from the release of the insects, and the insecticidal rate was calculated. The test was conducted in duplicate.
# Aphis gossypii = assay: Test of efficacy on Aphis gossypii (spray on cucumbers); conditions: 125 ppm; sprayed; first instar larvae on cucumbers; after 5 days
# Description: 5 parts of the compound of the present invention, 93.6 parts of dimethylformamide, and 1.4 parts of polyoxyethylene alkyl aryl ether were mixed and dissolved to prepare emulsion (I) containing 5% of the active ingredient. An insecticidal rate was calculated according to the following expression: Insecticidal rate (%)=(The number of dead insects/The number of tested insects)×100 A control rate was calculated according to the following expression: Control rate (%)={1−(Nt)/(Nc)}×100 • Nc: The number of parasites in an untreated plot • Nt: The number of parasites in a spray treated plot Cucumbers were sown in a 10-cm pot. An Aphis gossypii female adult was released to the cucumbers after 10 days from sprouting. On the next day, born first instar larvae were left, and the female adult was removed. Emulsion (I) was diluted with water such that the concentration of the compound of the present invention was 125 ppm. The dilution was sprayed to the cucumbers. The cucumbers were placed in a thermostat chamber having a temperature of 25° C. and a humidity of 60%. Life and death of Aphis gossypii were determined after 5 days, and the insecticidal rate was calculated.
# Mythimna separata = assay: Test of efficacy on Mythimna separata (treated artificial feed); conditions: second instar larvae, 1 μl of emulsion (I) (5% active ingredient) in 0.8 g artificial feed, fifth day, 25° C.
# Description: 5 parts of the compound of the present invention, 93.6 parts of dimethylformamide, and 1.4 parts of polyoxyethylene alkyl aryl ether were mixed and dissolved to prepare emulsion (I) containing 5% of the active ingredient. For a control, 93.6 parts of dimethylformamide and 1.4 parts of polyoxyethylene alkyl aryl ether were mixed and dissolved to prepare emulsion (II). An insecticidal rate was calculated according to the following expression: Insecticidal rate (%)=(The number of dead insects/The number of tested insects)×100 A control rate was calculated according to the following expression: Control rate (%)={1−(Nt)/(Nc)}×100 • Nc: The number of parasites in an untreated plot • Nt: The number of parasites in a spray treated plot 0.8 g of commercially available artificial feed (Insecta LFS, manufactured by Nosan Corp.) and 1 μl of the emulsion (I) were well mixed to obtain test feed. A plastic test container (capacity: 1.4 ml) was packed with 0.2 g of the test feed per treatment plot. Then, two second instar larvae of Mythimna separata were inoculated to each treatment plot. A plastic lid was put on the test container so as to prevent escape of the second instar larvae of Mythimna separata. The container was placed in a thermostat chamber of 25° C. On the fifth day, the insecticidal rate and the food intake were examined. The test was conducted in duplicate. […]
# Musca domestica = assay: Test of efficacy on Musca domestica (treated lump sugar); conditions: 100 ppm on lump sugar; female adults; after 24 hours
# Description: as §2
# The compound of the present invention was diluted with acetone, and the dilution was added dropwise to 1 g of lump sugar such that the concentration was 100 ppm. The lump sugar was placed in a plastic cup, ten Musca domestica female adults were released, and a lid was put on the cup. The plastic cup was stored at 25° C. Life and death were determined after 24 hours from the release of the insects, and the insecticidal rate was calculated. The test was conducted in duplicate.
# Plutella xylostella [3] = assay: Test of efficacy on Plutella xylostella (cabbage leaf dip); conditions: 125 ppm; cabbage leaves dipped 30 seconds; second instar larvae; after 3 days
# Description: 5 parts of the compound of the present invention, 93.6 parts of dimethylformamide, and 1.4 parts of polyoxyethylene alkyl aryl ether were mixed and dissolved to prepare emulsion (I) containing 5% of the active ingredient. An insecticidal rate was calculated according to the following expression: Insecticidal rate (%)=(The number of dead insects/The number of tested insects)×100 A control rate was calculated according to the following expression: Control rate (%)={1−(Nt)/(Nc)}×100 • Nc: The number of parasites in an untreated plot • Nt: The number of parasites in a spray treated plot The emulsion (I) was diluted with water such that the concentration of the compound of the present invention was 125 ppm. Cabbage leaves were dipped in the dilution for 30 seconds. The resulting cabbage leaves were placed in a petri dish. Five second instar larvae of Plutella xylostella were released thereto. The petri dish was placed in a thermostat chamber having a temperature of 25° C. and a humidity of 60%. Life and death were determined after 3 days from the release of the insects, and the insecticidal rate was calculated. The test was conducted in duplicate.
# [4] = 250 ppm soil irrigation of cabbage seedlings
# [5] = 500 ppm soil irrigation of cabbage seedlings
smiles,measurement,setting,value
"CCS(=O)(=O)c1cc(C2CC2)c[n+]([O-])c1-c1nc2cc(S(=O)(=O)C(F)(F)F)ccc2o1 [A-1, 5-cyclopropyl-3-(ethylsulfonyl)-2-(5-((trifluoromethyl)sulfonyl)benzo[d]oxazol-2-yl)pyridine 1-oxide]",Control rate % 21 days after,Plutella xylostella [1]; [4],98%
same,Control rate % 28 days after,Plutella xylostella [1]; [4],99%
same,Control rate % 21 days after,Plutella xylostella [1]; [5],100%
same,Control rate % 28 days after,Plutella xylostella [1]; [5],100%
same,insecticidal rate,Aphis craccivora,≥ 80%
same,insecticidal rate,[2],≥ 80%
same,insecticidal rate,Aphis gossypii,≥ 80%
same,insecticidal rate,Mythimna separata; stated as alternative to food intake ('or'),100%
same,food intake as compared with the control plot,Mythimna separata; stated as alternative to insecticidal rate ('or'),≤ 10%
same,insecticidal rate,Musca domestica,≥ 80%
same,insecticidal rate,Plutella xylostella [3],≥ 80%
